Laboratory results reported in paper PMC6368574, “Probing the Inhibition of Microtubule Affinity Regulating Kinase 4 by N-Substituted Acridones” (Scientific Reports, 2019).
Entries after “also recorded” stand apart in the source; their conditions may differ. Where two headings read alike, the source gives them in different places.

What was measured:
[1] = tested on: MCF-7 cells; assay: ROS measurement by DCFDA staining; format: cell-based, human; settings: IC50 dose, 5–6 h, flow cytometry
Description: The respiratory cycle of mitochondria is the foremost source of reactive oxygen species (ROS), and ROS has the potential to induce cell apoptosis. Thus, it was speculated that the treatment with selected acridone derivatives might lead to the production of ROS. The MCF-7 cells were treated with the IC50 dose of compounds 5, 7b, 7d, 7f and 7h for 5–6 h and ROS levels were quantified by flow cytometry using 2-dichlorofluorescein diacetate (DCFDA) staining.
Besides flow cytometry, levels of ROS were also measured by fluorescence spectroscopy, after treatment with compounds 5, 7b, 7d, 7f and 7h, DCFDA staining and imaging on a fluorescence microscope (Fig. 6D). It is easily observed in the Fig. 6D that the intensifications of green fluorescence in case of treated cells denote the higher levels of ROS.
DCF fluorescence helps to measures innumerable ROS such as H2O2 and hydroxyl radicals. That why DCFDA staining was used to quantify the reactive oxygen species (ROS) level inside the cell as described earlier[17],[41]. Briefly, the MCF-7 cells (70–80% confluent) were incubated with IC50 concentration of each compound and positive control H2O2, respectively in a 24-well culture plates. After 5–6 h incubation of cells with respective compounds, cells were gently washed with 500 μl of prewarmed (at 37 °C) Krebs Ringer buffer (20 mM HEPES, 2 mM MgSO4, 10 mM dextrose, 127 mM NaCl, 1 mM CaCl2 and 5.5 mM KCl), subsequently 10 µM DCFDA (Invitrogen Grand Island, NY) has been added to each well and incubated further for 30 min in dark at 37 °C in a humidified CO2 incubator. After 30 min incubation, the cells were collected by trypsinization and ROS levels were quantified with the help of Flow Cytometry. Nearly 10,000 events for each sample were collected on BD LSR II Flow Cytometry Analyzer, and analyzed with help of FlowJo. For intact cell imaging, cells were washed with PBS, pH 7.4 and imaged for ROS levels estimation using the DCFDA fluorescent dye. Fluorescence images were taken on Nikon-EclipseTS100 microscope.

[2] = target: T1, recombinant MARK4 (Homo sapiens, UniProt Q96L34); assay: Fluorescence binding (quenching, modified Stern-Volmer)
T1 construct: made in house; host or cells: bacterial cells (Luria-Bertani broth, IPTG induction)
T1 sequence (Q96L34 1-752): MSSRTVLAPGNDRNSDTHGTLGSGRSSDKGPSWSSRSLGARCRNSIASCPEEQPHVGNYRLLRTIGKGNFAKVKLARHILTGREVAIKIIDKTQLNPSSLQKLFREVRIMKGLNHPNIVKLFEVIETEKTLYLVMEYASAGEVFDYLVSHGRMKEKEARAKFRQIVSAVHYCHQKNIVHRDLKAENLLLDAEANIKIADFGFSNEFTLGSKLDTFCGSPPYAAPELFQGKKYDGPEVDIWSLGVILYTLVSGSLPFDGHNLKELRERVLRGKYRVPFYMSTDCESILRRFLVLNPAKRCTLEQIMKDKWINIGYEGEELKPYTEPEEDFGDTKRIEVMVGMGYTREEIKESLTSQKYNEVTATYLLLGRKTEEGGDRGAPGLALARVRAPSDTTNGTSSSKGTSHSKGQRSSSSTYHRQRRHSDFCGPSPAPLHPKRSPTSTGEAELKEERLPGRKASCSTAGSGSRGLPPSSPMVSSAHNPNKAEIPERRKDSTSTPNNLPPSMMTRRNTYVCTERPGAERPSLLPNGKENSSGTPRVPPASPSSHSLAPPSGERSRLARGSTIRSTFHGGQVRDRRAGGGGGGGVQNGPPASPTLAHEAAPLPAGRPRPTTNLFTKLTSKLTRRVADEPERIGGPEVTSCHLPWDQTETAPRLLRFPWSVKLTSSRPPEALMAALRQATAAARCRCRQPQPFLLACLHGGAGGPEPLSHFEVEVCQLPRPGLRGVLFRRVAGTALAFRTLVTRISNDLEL
Description: To determine the binding affinities of the synthesized acridones with MARK4, we used fluorescence emission spectra measurements. Protein sample was excited at 280 nm and emission was measured in 300–400 nm range with increasing concentrations of each acridone derivative (0–100 µM). A significant decrease in fluorescence intensity of MARK4 with increasing concentrations of each compound was fitted in the modified Stern-Volmer equation to calculate the binding constant, Ka and the number of binding sites per protein molecule (n). All the synthesized acridones have been screened (Supplementary Fig. S6, S7 and Table S3) and those with the highest affinity have been selected (compounds 5, 7b, 7d, 7f and 7h) for further evaluation (Fig. 3). The binding constants of compound 5, 7b, 7d, 7f and 7h were estimated as 6.3 × 10^4 M^−1, 1.0 × 10^6 M^−1, 1.0 × 10^6 M^−1, 1.9 × 10^6 M^−1, and 3.1 × 10^5 M^−1, respectively (Fig. 3).
Figure 3 Fluorescence binding studies of compound 5, 7b, 7d, 7f and 7h with MARK4. (A) Fluorescence emission spectra of MARK4 (10 µM) with increasing concentrations of the respective compound (5, 7b, 7d, 7f and 7h). Excitation wavelength was fixed at 280 nm and emission was recorded in 300–400 nm range. (B) Modified Stern-Volmer plot obtained from fluorescence quenching of MARK4 by compound 5, 7b, 7d, 7f and 7h, respectively. It was used to calculate binding affinity (Ka) and number of binding sites (n).
Binding affinities of synthesized acridone derivatives with recombinant MARK4 was carried out by observing the fluorescence intensity change of emission spectrum of MARK4 by following our previously published protocol[44],[45]. Each titration of protein was performed in triplicates and the average was taken for analysis. A significant decreased in fluorescence intensity of protein with increase in the concentration of acridone derivatives were used as the criteria for deducing the binding constant (Ka) as well as number of binding sites (n) present on the protein molecule using the modified Stern-Volmer equation[46]:1 log(Fo−F)/F=logKa+nlog[L] where, Fo = Fluorescence intensity of native protein, F = Fluorescence intensity of protein in the presence of ligand, Ka = Binding constant, n = number of binding sites, L = concentration of ligand. The values for Ka and n were derived from the intercept and slope, respectively.

[3] = Table S3, fluorescence binding, read-out: Binding affinity (Ka) (converted)

Row | Structure (SMILES) | ROS levels [1] | Kd ([2]; fluorescence quenching, MARK4 10 µM, excitation 280 nm, read-out: binding constant, Ka (converted)) [nM] | Kd [2, 3] [nM]
1 | COC(=O)Cn1c2ccccc2c(=O)c2cc(C)ccc21 [Compound 5, Methyl 2-(2-methyl-9-oxoacridin-10(9H)-yl)acetate] | increases the production of ROS | 15900 | 
2 | Cc1ccc2c(c1)c(=O)c1ccccc1n2CC(=O)NCc1ccccc1 [Compound 7b, N-benzyl-2-(2-methyl-9-oxoacridin-10(9H)-yl)acetamide] | increases the production of ROS; also recorded: induce ROS to a higher extent than compound 5 and 7h |  | 1000
3 | COc1ccc(CNC(=O)Cn2c3ccccc3c(=O)c3cc(C)ccc32)cc1 [Compound 7d, N-(4-methoxybenzyl)-2-(2-methyl-9-oxoacridin-10(9H)-yl)acetamide] | increases the production of ROS; also recorded: induce ROS to a higher extent than compound 5 and 7h |  | 1000
4 | COc1ccccc1NC(=O)Cn1c2ccccc2c(=O)c2cc(C)ccc21 [Compound 7h, N-(2-methoxyphenyl)-2-(2-methyl-9-oxoacridin-10(9H)-yl)acetamide] | increases the production of ROS |  | 3230
5 | Cc1ccc(NC(=O)Cn2c3ccccc3c(=O)c3cc(C)ccc32)cc1 [Compound 7f, 2-(2-Methyl-9-oxoacridin-10(9H)-yl)-N-(p-tolyl)acetamide] | increases the production of ROS; also recorded: induce ROS to a higher extent than compound 5 and 7h |  | 526
